Assay results: US20240182503A1, “MACROCYCLE COMPLEMENT FACTOR B INHIBITORS” (priority 2021, published 2024)
pIC50: −log10 of the molar value. Read-outs that look alike come from different tables or passages of the source.

Legend:
[1] = rcm bond, DCM
CVF-Bb complex = CVF-Bb complex (Homo sapiens (Human), UniProt P00751); experiment: biochemical; format: biochemical
Method: CVF-Bb complex, prepared from purified cobra venom factor, (3 nM) is incubated with a compound of the disclosure at various concentrations for 10 minutes at room temperature in PBS (pH 7.4) containing 10 mM MgCl2 and 0.05% (w/v) CHAPS. Human Complement C3 substrate is added to a final concentration of 1 μM. After 1 hour incubation at room temperature, the enzyme reaction is stopped by addition of a cocktail of concentrated pan-protease inhibitors. The product of the reaction, C3a, is quantified by means of an enzyme-linked-immunosorbent assay and/or denaturing gel electrophoresis (SDS-PAGE). IC50 values are calculated from percentage of inhibition of CVF-Bb activity as a function of test compound concentration.

SMILES: COC(=O)c1ccc2c(c1)OCCCCC=CCO[C@H]1CCN(C(=O)OC(C)(C)C)[C@H]2C1
- ring closure, isolated yield ([1]; from C=CCCCCOc1cc(C(=O)OC)ccc1[C@@H]1C[C@@H](OCC=C)CCN1C(=O)OC(C)(C)C, 14-membered ring, Grubbs I (20 mol%), 2.15 mM, 25.0 °C, 18.0 h): 72.4%
- ring closure, isolated yield ([1]; from C=CCCCCOc1cc(C(=O)OC)ccc1[C@@H]1C[C@@H](OCC=C)CCN1C(=O)OC(C)(C)C, 14-membered ring, Grubbs I (20 mol%), 2.17 mM, 25.0 °C, 18.0 h): 83.2%

SMILES: COC(=O)c1ccc2c3cc(ccc13)OCCC=CCO[C@H]1CCN(C(=O)OC(C)(C)C)[C@H]2C1
- ring closure, isolated yield ([1]; from C=CCCOc1ccc2c(C(=O)OC)ccc([C@@H]3C[C@@H](OCC=C)CCN3C(=O)OC(C)(C)C)c2c1, 14-membered ring, Grubbs I, 3.2 mM, 16.0 h): 33.4%

SMILES: COC(=O)c1ccc2c3cc(ccc13)OCC=CCO[C@H]1CCN(C(=O)OC(C)(C)C)[C@H]2C1
- ring closure, isolated yield ([1]; from C=CCOc1ccc2c(C(=O)OC)ccc([C@@H]3C[C@@H](OCC=C)CCN3C(=O)OC(C)(C)C)c2c1, 13-membered ring, Grubbs I, 2.1 mM, 25.0 °C, 18.0 h): 67.1%

SMILES: COC(=O)c1ccc2c3cc(ccc13)OCCCC=CCO[C@@H]1CCN(C(=O)OC(C)(C)C)[C@@H]2C1
- ring closure, isolated yield ([1]; from C=CCCCOc1ccc2c(C(=O)OC)ccc([C@H]3C[C@H](OCC=C)CCN3C(=O)OC(C)(C)C)c2c1, 15-membered ring, Grubbs I, 1.96 mM, 25.0 °C, 18.0 h): 74%

SMILES: COC(=O)c1ccc2c(c1)OCCCC=CCO[C@H]1CCN(C(=O)OC(C)(C)C)[C@H]2C1
- ring closure, isolated yield ([1]; from C=CCCCOc1cc(C(=O)OC)ccc1[C@@H]1C[C@@H](OCC=C)CCN1C(=O)OC(C)(C)C, 13-membered ring, Grubbs I (20 mol%), 2.22 mM, 25.0 °C, 18.0 h): 68.8%

SMILES: CC(C)(C)OC(=O)N1CCC2(O)CC=CCCCCOc3cc(Br)ccc3[C@@H]1C2
- ring closure, isolated yield ([1]; from C=CCCCCOc1cc(Br)ccc1[C@@H]1CC(O)(CC=C)CCN1C(=O)OC(C)(C)C, 13-membered ring, Grubbs I, 2.5 mM, 25.0 °C, 48.0 h): 65.9%

SMILES: Cc1cc2c(c3cc[nH]c13)CN1CC[C@@H](C[C@H]1c1ccc(C(=O)O)cc1)OCCCCCCCO2 [Ex. 25, 4-((3^2R,3^4R)-1^7-methyl-1^1H-4,12-dioxa-1(4,5)-indola-3(1,4)-piperidinacyclododecaphane-3^2-yl)benzoic acid]
- pIC50 (CVF-Bb complex): < 5.00

SMILES: COc1cc(C)c2[nH]ccc2c1CN1CC[C@H]2C[C@H]1c1ccc(C(=O)O)cc1OCCC/C=C\CO2 [Ex. 11, (1^2S,1^4S,Z)-1′-((5-methoxy-7-methyl-1H-indol-4-yl)methyl)-3,10-dioxa-1(2,4)-piperidina-2(1,2)-benzenacyclodecaphan-7-ene-2^4-carboxylic acid]
- pIC50 (CVF-Bb complex; read-out: IC50): 5.92

SMILES: COC(=O)c1ccc2c3cc(ccc13)OCCCC=CCO[C@H]1CCN(C(=O)OC(C)(C)C)[C@H]2C1
- ring closure, isolated yield ([1]; from C=CCCCOc1ccc2c(C(=O)OC)ccc([C@@H]3C[C@@H](OCC=C)CCN3C(=O)OC(C)(C)C)c2c1, 15-membered ring, Grubbs I, 1.95 mM, 25.0 °C, 18.0 h): 75.3%
- ring closure, isolated yield ([1]; from C=CCCCOc1ccc2c(C(=O)OC)ccc([C@@H]3C[C@@H](OCC=C)CCN3C(=O)OC(C)(C)C)c2c1, 15-membered ring, Grubbs I, 2.0 mM, 25.0 °C, 18.0 h): 22.7%

SMILES: C=CCCCOc1cc(Br)ccc1[C@@H]1C[C@@H](O)CCN1C(=O)OCc1ccccc1
- ring closure, isolated yield ([1]; the molecule shown is the open-chain precursor, 13-membered ring, Grubbs I (5 mol%), 1.75 mM, 25.0 °C): 76.4%

SMILES: COc1cc(C)c2c(ccn2C(=O)OC(C)(C)C)c1CN1CC[C@@H]2C[C@@H]1c1ccc(C(=O)O)c3ccc(cc13)OCCC/C=C/CO2 [Ex. 51, (1^2R,1^4R,E)-1^1-((1-(tert-butoxycarbonyl)-5-methoxy-7-methyl-1H-indol-4-yl)methyl)-3,10-dioxa-1(2,4)-piperidina-2(1,7)-naphthalenacyclodecaphan-7-ene-2^4-carboxylic acid]
- pIC50 (CVF-Bb complex; read-out: IC50): < 5.00

SMILES: COc1cc(C)c2[nH]ccc2c1CN1CC[C@H]2C[C@H]1c1ccc(C(=O)O)cc1OCCCCCO2 [Ex. 8, (1^2S,1^4S)_1^1-((5-methoxy-7-methyl-1H-indol-4-yl)methyl)-3,9-dioxa-1(2,4)-piperidina-2(1,2)-benzenacyclononaphane-2^4-carboxylic acid]
- pIC50 (CVF-Bb complex; read-out: IC50): 6.40

SMILES: COc1cc(C)c2[nH]ccc2c1CN1CC[C@H]2C[C@H]1c1ccc(-c3nnn[nH]3)cc1OCCCCCCO2 [Ex. 74, (1^2S,1^4S)-1^1-((5-methoxy-7-methyl-1H-indol-4-yl)methyl)-2^4-(1H-tetrazol-5-yl)-3,10-dioxa-1(2,4)-piperidina-2(1,2)-benzenacyclodecaphane]
- pIC50 (CVF-Bb complex; read-out: IC50): 5.90

SMILES: COC(=O)c1ccc2c(c1)OCCC=CCO[C@H]1CCN(C(=O)OC(C)(C)C)[C@H]2C1
- ring closure, isolated yield ([1]; from C=CCCOc1cc(C(=O)OC)ccc1[C@@H]1C[C@@H](OCC=C)CCN1C(=O)OC(C)(C)C, 12-membered ring, Grubbs I (20 mol%), 2.22 mM, 25.0 °C, 18.0 h): 61.9%

SMILES: COc1cc(C)c2[nH]ccc2c1CN1CC[C@@H]2C[C@@H]1c1ccc(C(=O)O)cc1OCC/C=C\CO2 [Ex. 42, (1^2R,1^4R,Z)-1^1-((5-methoxy-7-methyl-1H-indol-4-yl)methyl)-3,9-dioxa-1(2,4)-piperidina-2(1,2)-benzenacyclononaphan-6-ene-2^4-carboxylic acid]
- pIC50 (CVF-Bb complex): 5.97

SMILES: CCO[C@H]1CCN(Cc2c(OC)cc(C)c3[nH]ccc23)[C@H](c2ccc(C(=O)NS(=O)(=O)CC)cc2)C1 [Ex. 44, 4-((2S,4S)-4-ethoxy-1-((5-methoxy-7-methyl-1H-indol-4-yl)methyl)piperidin-2-yl)-N-(ethylsulfonyl)benzamide]
- pIC50 (CVF-Bb complex): 6.86

SMILES: COc1cc(C)c2[nH]ccc2c1CN1CC[C@H]2C[C@H]1c1ccc(C(=O)O)c3ccc(cc13)OCC/C=C/CO2 [Ex. 76, (1^2S,1^4S)-1^1-((5-methoxy-7-methyl-1H-indol-4-yl)methyl)-3,9-dioxa-1(2,4)-piperidina-2(1,7)-naphthalenacyclononaphane-2^4-carboxylic acid]
- pIC50 (CVF-Bb complex; read-out: IC50): 6.60

SMILES: COc1cc(C)c2[nH]ccc2c1CN1CC[C@H]2C[C@H]1c1ccc(C(=O)NS(C)(=O)=O)cc1/C=C/CCCCCCO2 [Ex. 58, (1^2S,1^4S, E)-1^1-((5-methoxy-7-methyl-1H-indol-4-yl)methyl)-N-(methylsulfonyl)-11-oxa-1(2,4)-piperidina-2(1,2)-benzenacycloundecaphan-3-ene-2^4-carboxamide]
- pIC50 (CVF-Bb complex; read-out: IC50): 5.97
